Measured values published in patent US20170107179A1 (Tetraphase Pharmaceuticals, Inc., priority 2010, published 2017).
In brackets after ≈: the same amount, converted by molar mass. Like-named read-outs stand apart in the source and are kept apart here.

Tests used:
[1] = system: H. influenzae HI551; experiment: Rat lung infection model; assay type: in vivo; settings: H. influenzae intratracheal, 50 mg/kg orally at 5, 24, 48 hours
[2] = system: Gram-negative and Gram-positive organisms (clinical isolates); experiment: Broth microdilution MIC against clinical isolates (CLSI M7-A8), Table 9; assay type: cell-based
[3] = system: S. maltophila; experiment: Broth microdilution MIC by tetracycline resistance phenotype (Table 10); assay type: cell-based; parameters: unit not given beside the values
[4] = system: Viridans group streptococci; experiment: as above; assay type: cell-based; parameters: unit not given beside the values
[5] = system: Legionella pneumophila, 70 isolates, serogroups 1-6; experiment: microbe, parasite or virus in culture; assay type: cell-based
[6] = system: E. coli DH10B EC971 LacZ; experiment: MIC, E. coli DH10B recombinantly expressing control gene
[7] = system: evaluated pathogens by tetracycline phenotype; experiment: Broth microdilution MIC by tetracycline phenotype (Table 14)
[8] = system: E. coli DH10B EC1153 Tet(X); experiment: MIC, E. coli DH10B recombinantly expressing tetracycline-resistance gene; settings: arabinose-induced, ampicillin in medium
[9] = system: E. coli DH10B EC969 TetM; experiment: as above; settings: arabinose-induced, ampicillin in medium
[10] = system: E. coli DH10B EC970 TetK; experiment: as above; settings: arabinose-induced, ampicillin in medium
[11] = system: E. coli DH10B EC1082 TetA; experiment: as above; settings: arabinose-induced, ampicillin in medium
[12] = system: E. coli DH10B EC1083 TetB; experiment: as above; settings: arabinose-induced, ampicillin in medium
[13] = system: S. aureus SA101; assay type: cell-based; settings: SA101, plates containing compound at 5× the MIC
[14] = system: S. pneumoniae SP106; assay type: cell-based; settings: SP106, plates containing compound at 5× the MIC, 5% sheep blood

CC[C@H]1OC(=O)[C@H](C)[C@@H](O[C@H]2C[C@@](C)(OC)[C@@H](O)[C@H](C)O2)[C@H](C)[C@@H](O[C@@H]2O[C@H](C)C[C@H](N(C)C)[C@H]2O)[C@](C)(O)C[C@@H](C)CN(C)[C@H](C)[C@@H](O)[C@]1(C)O [Azithromycin, azithromycin, reference compound]
reduction in lung CFU, oral comparator [1]: 6.24±0.03 log10

CN(C)[C@@H]1C(O)=C(C(N)=O)C(=O)[C@@]2(O)C(O)=C3C(=O)c4c(O)cccc4[C@@](C)(O)[C@H]3C[C@@H]12 [Tetracycline, tetracycline]
MIC50 [2]: 0.25 µg/mL (≈ 0.563 µM) | MIC90 [2]: > 8 µg/mL | MIC50 ([2]; Acinetobacter lwoffii): 0.5 µg/mL (≈ 1.13 µM) | MIC90 ([2]; Acinetobacter lwoffii): 4 µg/mL (≈ 9 µM) | MIC50 ([2]; Enterobacter cloacae): 4 µg/mL (≈ 9 µM) | MIC90 ([2]; Enterobacter cloacae): > 8 µg/mL | MIC50 ([2]; Escherichia coli): > 8 µg/mL | MIC90 ([2]; Escherichia coli): > 8 µg/mL | MIC50 ([2]; Klebsiella aerogenes): 1 µg/mL (≈ 2.25 µM) | MIC90 ([2]; Klebsiella aerogenes): 2 µg/mL (≈ 4.5 µM) | MIC50 ([2]; Klebsiella pneumoniae): 8 µg/mL (≈ 18 µM) | MIC90 ([2]; Klebsiella pneumoniae): > 8 µg/mL | MIC50 ([2]; Morganella morganii): 2 µg/mL (≈ 4.5 µM) | MIC90 ([2]; Morganella morganii): > 8 µg/mL | MIC50 ([2]; Proteus vulgaris): 8 µg/mL (≈ 18 µM) | MIC90 ([2]; Proteus vulgaris): > 8 µg/mL | MIC50 ([2]; Serratia marcescens): > 8 µg/mL | MIC90 ([2]; Serratia marcescens): > 8 µg/mL | MIC50 ([2]; Staphylococcus aureus): 0.25 µg/mL (≈ 0.563 µM) | MIC50 ([2]; Stenotrophomonas maltophilia): 8 µg/mL (≈ 18 µM) | MIC90 ([2]; Stenotrophomonas maltophilia): > 8 µg/mL | MIC50 ([2]; Streptococcus anginosus): 0.12 µg/mL (≈ 0.27 µM) | MIC90 ([2]; Streptococcus anginosus): > 4 µg/mL | MIC50 ([2]; Streptococcus intermedius): 0.25 µg/mL (≈ 0.563 µM) | MIC90 ([2]; Streptococcus intermedius): > 4 µg/mL | MIC50 ([2]; Streptococcus mitis): 0.5 µg/mL (≈ 1.13 µM) | MIC90 ([2]; Streptococcus mitis): > 4 µg/mL | MIC50 ([3]; TET NS, n=19): >8 | MIC90 ([3]; TET NS, n=19): >8 | MIC50 ([3]; TET S, n=10): 4 | MIC90 ([3]; TET S, n=10): 4 | MIC50 ([4]; TET NS, n=32): >4 | MIC90 ([4]; TET NS, n=32): >4 | MIC50 ([4]; TET S, n=65): 0.25 | MIC90 ([4]; TET S, n=65): 0.5 | MIC50 [5]: 4 µg/mL (≈ 9 µM) | MIC90 [5]: 8 µg/mL (≈ 18 µM) | MIC EC971 LacZ [6]: 2 | MIC90 ([7]; F. faecalis, TET S, N=30): 500 µg/mL (≈ 1130 µM) | MIC50 ([7]; Streptococcus pneumoniae, S. pneumoniae, TET NS, N=46): 16000 µg/mL (≈ 36000 µM) | MIC EC1153 Tet(X) [8]: >32 | MIC EC969 TetM [9]: 64 | MIC EC970 TetK [10]: 64 | MIC EC1082 TetA [11]: >128 | MIC EC1083 TetB [12]: >128

CO[C@H]1/C=C/O[C@@]2(C)Oc3c(C)c(O)c4c(O)c(c(/C=N/N5CCN(C)CC5)c(O)c4c3C2=O)NC(=O)/C(C)=C\C=C\[C@H](C)[C@H](O)[C@@H](C)[C@@H](O)[C@@H](C)[C@H](OC(C)=O)[C@@H]1C [rifampin, reference compound]
spontaneous resistance frequency [13]: 2.0×10^−8 | spontaneous resistance frequency [14]: 2.88×10^−7
